# Test results from BindingDB's records for doi:10.1021/jm00388a021 (1987).
# pKi: −log10 of the molar value.
# Assays:
# [1] = molecular target: Thymidine kinase (Herpes simplex virus 2); experiment: Compound was evaluated for Kinetic constant for viral thymidine kinase of Herpes simplex virus (HSV) -2
# [2] = molecular target: Thymidine kinase (Herpes simplex virus 1); experiment: Compound was evaluated for Kinetic constant for viral thymidine kinase of Herpes simplex virus (HSV) -1
smiles,measurement,setting,value
O=c1[nH]c(=O)n([C@@H]2O[C@H](CO)[C@@H](O)[C@@H]2F)cc1I [FIALURIDINE],pKi,[1],6.02
same,pKi,[2],6.85
